Measured values reported in publication PMC6832920, “Synthesis, Docking Studies, and In Vitro Evaluation of Some Novel Thienopyridines and Fused Thienopyridine–Quinolines as Antibacterial Agents and DNA Gyrase Inhibitors” (Molecules, 2019).
In brackets after ≈: the same amount, converted by molar mass.

Tests used:
Bacillus cereus 33018 [1] = assay: agar disc-diffusion antibacterial assay; format: cell-based; details: B. cereus 33018, disc loaded with 100 μg, 37 °C, 24 h, read-out: diameter of inhibition zone
Protocol: (§1) A 100 μL measure of NB containing each test microorganism was added to the sterile Petri dishes. Antibacterial testing was carried out on all compounds (3a,b–14) using the agar disc-diffusion method [40]. Sterile nutrients were inoculated with 100 μL cell suspension of the chosen test microorganism and poured into Petri dishes (20 cm diameter). Filter paper discs (Whatman, No.3, diameter 5 mm) were loaded with 10 μL containing 100 μg of the tested compounds, as well as the standard drug. Composite compound disks were placed on the surface of inoculated agar plates and kept at low temperatures before incubation in order to support the swelling and diffusion of the microbial growth. The plates were incubated at 37 °C in the incubator. Experiments were performed in duplicate and the diameters of inhibition zones were measured after 24 h. A diameter of inhibition zone (DIZ) assay was performed to evaluate the antimicrobial potential of the compounds against the tested organisms compared with reference antibiotics.

[2] = tested on: Staphylococcus aureus 25923; assay: agar disc-diffusion antibacterial assay; format: cell-based; details: S. aureus 25923, disc loaded with 100 μg, 37 °C, 24 h, read-out: diameter of inhibition zone
Protocol: (§2) The clinical control strains of Gram-negative bacteria (Escherichia coli 8739, Salmonella typhimurium 14028, Pseudomonas aeruginosa 27853) and Gram-positive bacteria (Bacillus subtilis 6633, Bacillus cereus 33018, Staphylococcus aureus 25923), were obtained from microbial inoculums by subculturing microorganisms into nutrient broth (NB) at 37 °C for 18 h, and were adjusted to 0.125 A° at 625 nm (equivalent to a McFarland 0.5) in 2-fold NB. A 100 μL measure of NB containing each test microorganism was added to the sterile Petri dishes. Antibacterial testing was carried out on all compounds (3a,b–14) using the agar disc-diffusion method [40]. Sterile nutrients were inoculated with 100 μL cell suspension of the chosen test microorganism and poured into Petri dishes (20 cm diameter). Filter paper discs (Whatman, No.3, diameter 5 mm) were loaded with 10 μL containing 100 μg of the tested compounds, as well as the standard drug. Composite compound disks were placed on the surface of inoculated agar plates and kept at low temperatures before incubation in order to support the swelling and diffusion of the microbial growth. The plates were incubated at 37 °C in the incubator. Experiments were performed in duplicate and the diameters of inhibition zones were measured after 24 h. A diameter of inhibition zone (DIZ) assay was performed to evaluate the antimicrobial potential of the compounds against the tested organisms compared with reference antibiotics.

Bacillus cereus 33018 [3] = assay: MIC determination by dilution procedure; format: cell-based; details: B. cereus 33018, dilutions 125-1.95 μg/mL, read-out: minimum inhibitory concentration (MIC)
Protocol: as §1

[4] = tested on: Staphylococcus aureus 25923; assay: MIC determination by dilution procedure; format: cell-based; details: dilutions 125-1.95 μg/mL; for MIC: Staphylococcus aureus, 25923, S. aureus 25923, read-out: minimum inhibitory concentration (MIC)
Protocol: as §1

Bacillus subtilis 6633 [5] = assay: MIC determination by dilution procedure; format: cell-based; details: B. subtilis 6633, dilutions 125-1.95 μg/mL, read-out: minimum inhibitory concentration (MIC)
Protocol: as §1

Bacillus subtilis 6633 [6] = assay: agar disc-diffusion antibacterial assay; format: cell-based; details: B. subtilis 6633, disc loaded with 100 μg, 37 °C, 24 h, read-out: diameter of inhibition zone
Protocol: as §1

[7] = tested on: Pseudomonas aeruginosa 27853; assay: agar disc-diffusion antibacterial assay; format: cell-based; details: P. aeruginosa 27853, disc loaded with 100 μg, 37 °C, 24 h, read-out: diameter of inhibition zone
Protocol: as §2

[8] = tested on: Pseudomonas aeruginosa 27853; assay: MIC determination by dilution procedure; format: cell-based; details: dilutions 125-1.95 μg/mL; for MIC: Pseudomonas aeruginosa, 27853, P. aeruginosa 27853, read-out: minimum inhibitory concentration (MIC)
Escherichia coli 8739 [9] = assay: MIC determination by dilution procedure; format: cell-based; details: E. coli 8739, dilutions 125-1.95 μg/mL, read-out: minimum inhibitory concentration (MIC)
[10] = tested on: Salmonella typhimurium 14028; assay: MIC determination by dilution procedure; format: cell-based; details: Salmonella enterica; S. typhimurium 14028; dilutions 125-1.95 μg/mL; read-out: minimum inhibitory concentration (MIC)
Protocol: (§3) The clinical control strains of Gram-negative bacteria (Escherichia coli 8739, Salmonella typhimurium 14028, Pseudomonas aeruginosa 27853) and Gram-positive bacteria (Bacillus subtilis 6633, Bacillus cereus 33018, Staphylococcus aureus 25923), were obtained from microbial inoculums by subculturing microorganisms into nutrient broth (NB) at 37 °C for 18 h, and were adjusted to 0.125 A° at 625 nm (equivalent to a McFarland 0.5) in 2-fold NB. A 100 μL measure of NB containing each test microorganism was added to the sterile Petri dishes. Antibacterial testing was carried out on all compounds (3a,b–14) using the agar disc-diffusion method [40]. Sterile nutrients were inoculated with 100 μL cell suspension of the chosen test microorganism and poured into Petri dishes (20 cm diameter). Filter paper discs (Whatman, No.3, diameter 5 mm) were loaded with 10 μL containing 100 μg of the tested compounds, as well as the standard drug. Composite compound disks were placed on the surface of inoculated agar plates and kept at low temperatures before incubation in order to support the swelling and diffusion of the microbial growth. The plates were incubated at 37 °C in the incubator. Experiments were performed in duplicate and the diameters of inhibition zones were measured after 24 h.

[11] = tested on: Salmonella typhimurium 14028; assay: agar disc-diffusion antibacterial assay; format: cell-based; details: Salmonella enterica; S. typhimurium 14028; disc loaded with 100 μg; 37 °C, 24 h; read-out: diameter of inhibition zone
Protocol: as §3

Escherichia coli 8739 [12] = assay: agar disc-diffusion antibacterial assay; format: cell-based; details: E. coli 8739, disc loaded with 100 μg, 37 °C, 24 h, read-out: diameter of inhibition zone
Protocol: as §2

SMILES: COc1ccc(-c2cc(-c3ccco3)nc3sc4c(NC(=O)CNN=Cc5ccc(C)cc5)c5c(nc4c23)CCCC5)cc1 [Compound 8b, N-(2-(furan-2-yl)-4-(4-methoxyphenyl)-6,7,8,9-tetrahydropyrido[3′,2′:4,5]thieno[3,2-b]quinolin-10-yl)-2-(2-(4-methylbenzylidene)hydrazinyl)acetamide]
- zone of inhibition at 100 µg/disc (Bacillus cereus 33018 [1]): 9 mm
- zone of inhibition at 100 µg/disc [2]: 8 mm
- MIC (Bacillus cereus 33018 [3]): 62.5 µg/mL (≈ 104 µM)
- MIC [4]: 62.5 µg/mL (≈ 104 µM)
- MIC (Bacillus subtilis 6633 [5]): 31.2 µg/mL (≈ 51.9 µM)
- zone of inhibition at 100 µg/disc (Bacillus subtilis 6633 [6]): 9 mm
- melting point: 122 °C

SMILES: COc1ccc(-c2cc(-c3ccco3)nc3sc4c(NC(=O)CN5CCOCC5)c5c(nc4c23)CCCC5)cc1 [Compound 9a, N-(2-(furan-2-yl)-4-(4-methoxyphenyl)-6,7,8,9-tetrahydropyrido[3′,2′:4,5]thieno[3,2-b]quinolin-10-yl)-2-morpholinoacetamide]
- zone of inhibition at 100 µg/disc [7]: 11 mm
- zone of inhibition at 100 µg/disc (Bacillus cereus 33018 [1]): 16 mm
- zone of inhibition at 100 µg/disc [2]: 12 mm
- minimum inhibitory concentration (MIC) ([8]; P. aeruginosa 27853): 31.25 µg/mL (≈ 56.3 µM)
- MIC [8]: 15.6 µg/mL (≈ 28.2 µM)
- MIC (Bacillus cereus 33018 [3]): 15.6 µg/mL (≈ 28.2 µM)
- MIC (Escherichia coli 8739 [9]): 15.6 µg/mL (≈ 28.2 µM)
- minimum inhibitory concentration (MIC) ([4]; S. aureus 25923): 31.25 µg/mL (≈ 56.3 µM)
- MIC [4]: 15.6 µg/mL (≈ 28.2 µM)
- MIC [10]: 15.6 µg/mL (≈ 28.2 µM)
- MIC (Bacillus subtilis 6633 [5]): 15.6 µg/mL (≈ 28.2 µM)
- zone of inhibition at 100 µg/disc (Bacillus subtilis 6633 [6]): 14 mm
- melting point: 143 °C

SMILES: N#Cc1c(-c2cccs2)cc(-c2ccco2)nc1SCC(N)=O [Compound 2b, 2-((3-Cyano-6-(furan-2-yl)-4-(thiophen-2-yl)pyridin-2-yl)thio)acetamide]
- melting point: 242 °C

SMILES: COc1ccc(-c2cc(-c3ccco3)nc(SCC(N)=O)c2C#N)cc1 [Compound 2a, 2-((3-Cyano-6-(furan-2-yl)-4-(4-methoxyphenyl)pyridin-2-yl)thio)acetamide]
- melting point: 246 °C

SMILES: COc1ccc(-c2cc(-c3ccco3)nc3sc4c(NS(=O)(=O)c5ccccc5)c5c(nc4c23)CCCC5)cc1 [Compound 10, N-(2-(Furan-2-yl)-4-(4-methoxyphenyl)-6,7,8,9-tetrahydropyrido[3′,2′:4,5]thieno [3,2-b]quinolin-10-yl)benzenesulfonamide]
- zone of inhibition at 100 µg/disc (Bacillus cereus 33018 [1]): 9 mm
- zone of inhibition at 100 µg/disc [2]: 9 mm
- MIC (Bacillus cereus 33018 [3]): 62.5 µg/mL (≈ 110 µM)
- MIC [4]: 31.2 µg/mL (≈ 55 µM)
- MIC (Bacillus subtilis 6633 [5]): 62.5 µg/mL (≈ 110 µM)
- zone of inhibition at 100 µg/disc (Bacillus subtilis 6633 [6]): 8 mm
- melting point: 303 to 304 °C

SMILES: CC1(C)S[C@@H]2[C@H](NC(=O)[C@H](N)c3ccc(O)cc3)C(=O)N2[C@H]1C(=O)O [Amoxicillin, amoxicillin trihydrate, reference compound]
- zone of inhibition at 100 µg/disc [7]: 18 mm
- zone of inhibition at 100 µg/disc (Bacillus cereus 33018 [1]): 19 mm
- zone of inhibition at 100 µg/disc [2]: 19 mm
- zone of inhibition at 100 µg/disc [11]: 21 mm
- MIC [8]: 15.6 µg/mL
- MIC (Bacillus cereus 33018 [3]): 15.6 µg/mL
- MIC (Escherichia coli 8739 [9]): 15.6 µg/mL
- MIC [4]: 15.6 µg/mL
- zone of inhibition at 100 µg/disc (Escherichia coli 8739 [12]): 20 mm
- MIC [10]: 15.6 µg/mL
- MIC (Bacillus subtilis 6633 [5]): 15.6 µg/mL
- zone of inhibition at 100 µg/disc (Bacillus subtilis 6633 [6]): 17 mm

SMILES: NNCC(=O)Nc1c2c(nc3c1sc1nc(-c4ccco4)cc(-c4cccs4)c13)CCCC2 [Compound 7b, N-(2-(furan-2-yl)-4-(thiophen-2-yl)-6,7,8,9-tetrahydropyrido[3′,2′:4,5]thieno[3,2-b]quinolin-10-yl)-2-hydrazinylacetamide]
- zone of inhibition at 100 µg/disc [7]: 12 mm
- zone of inhibition at 100 µg/disc (Bacillus cereus 33018 [1]): 11 mm
- zone of inhibition at 100 µg/disc [2]: 10 mm
- zone of inhibition at 100 µg/disc [11]: 10 mm
- MIC [8]: 31.2 µg/mL (≈ 65.7 µM)
- MIC (Bacillus cereus 33018 [3]): 31.2 µg/mL (≈ 65.7 µM)
- MIC [4]: 31.2 µg/mL (≈ 65.7 µM)
- MIC [10]: 31.2 µg/mL (≈ 65.7 µM)
- MIC (Bacillus subtilis 6633 [5]): 62.5 µg/mL (≈ 131 µM)
- zone of inhibition at 100 µg/disc (Bacillus subtilis 6633 [6]): 8 mm
- melting point: 306 °C

SMILES: COc1ccc(-c2cc(-c3ccco3)nc3sc4c(NC(=O)CNN=Cc5ccc(OC)c(OC)c5)c5c(nc4c23)CCCC5)cc1 [Compound 8a, 2-(2-(3,4-Dimethoxybenzylidene)hydrazinyl)-N-(2-(furan-2-yl)-4-(4-methoxyphenyl)-6,7,8,9-tetrahydropyrido[3′,2′:4,5]thieno[3,2-b]quinolin-10-yl)acetamide]
- zone of inhibition at 100 µg/disc (Bacillus cereus 33018 [1]): 9 mm
- zone of inhibition at 100 µg/disc [2]: 11 mm
- MIC (Bacillus cereus 33018 [3]): 31.2 µg/mL (≈ 48.2 µM)
- MIC [4]: 31.2 µg/mL (≈ 48.2 µM)
- MIC (Bacillus subtilis 6633 [5]): 31.2 µg/mL (≈ 48.2 µM)
- zone of inhibition at 100 µg/disc (Bacillus subtilis 6633 [6]): 11 mm
- melting point: 187 °C

SMILES: COc1ccc(-c2cc(-c3ccco3)nc3sc4c(N=Cc5ccc(N(C)C)cc5)c5c(nc4c23)CCCC5)cc1 [Compound 12a, 4-(((2-(furan-2-yl)-4-(4-methoxyphenyl)-6,7,8,9-tetrahydropyrido[3′,2′:4,5]thieno[3,2-b]quinolin-10-yl)imino)methyl)-N,N-dimethylaniline]
- zone of inhibition at 100 µg/disc [7]: 9 mm
- zone of inhibition at 100 µg/disc (Bacillus cereus 33018 [1]): 11 mm
- zone of inhibition at 100 µg/disc [2]: 10 mm
- zone of inhibition at 100 µg/disc [11]: 8 mm
- MIC [8]: 62.5 µg/mL (≈ 112 µM)
- MIC (Bacillus cereus 33018 [3]): 31.2 µg/mL (≈ 55.9 µM)
- MIC (Escherichia coli 8739 [9]): 31.2 µg/mL (≈ 55.9 µM)
- MIC [4]: 31.2 µg/mL (≈ 55.9 µM)
- zone of inhibition at 100 µg/disc (Escherichia coli 8739 [12]): 11 mm
- MIC [10]: 62.5 µg/mL (≈ 112 µM)
- MIC (Bacillus subtilis 6633 [5]): 31.2 µg/mL (≈ 55.9 µM)
- zone of inhibition at 100 µg/disc (Bacillus subtilis 6633 [6]): 13 mm
- melting point: 149 °C

SMILES: COc1ccc(-c2cc(-c3ccco3)nc3sc4c(NC(=O)Nc5ccccc5)c5c(nc4c23)CCCC5)cc1 [Compound 11, 1-(2-(Furan-2-yl)-4-(4-methoxyphenyl)-6,7,8,9-tetrahydropyrido[3′,2′:4,5]thieno [3,2-b]quinolin-10-yl)-3-phenylurea]
- zone of inhibition at 100 µg/disc (Bacillus cereus 33018 [1]): 8 mm
- zone of inhibition at 100 µg/disc [2]: 8 mm
- MIC (Bacillus cereus 33018 [3]): 62.5 µg/mL (≈ 114 µM)
- MIC [4]: 62.5 µg/mL (≈ 114 µM)
- MIC (Bacillus subtilis 6633 [5]): 31.2 µg/mL (≈ 57.2 µM)
- zone of inhibition at 100 µg/disc (Bacillus subtilis 6633 [6]): 9 mm
- melting point: 118 to 120 °C

SMILES: CC(=O)CC(=O)Nc1c2c(nc3c1sc1nc(-c4ccco4)cc(-c4cccs4)c13)CCCC2 [Compound 13, N-(2-(furan-2-yl)-4-(thiophen-2-yl)-6,7,8,9-tetrahydropyrido[3′,2′:4,5]thieno[3,2-b]quinolin-10-yl)-3-oxobutanamide]
- zone of inhibition at 100 µg/disc [7]: 11 mm
- zone of inhibition at 100 µg/disc (Bacillus cereus 33018 [1]): 16 mm
- zone of inhibition at 100 µg/disc [2]: 12 mm
- zone of inhibition at 100 µg/disc [11]: 7 mm
- MIC [8]: 31.2 µg/mL (≈ 64.1 µM)
- MIC (Bacillus cereus 33018 [3]): 15.6 µg/mL (≈ 32.1 µM)
- MIC (Escherichia coli 8739 [9]): 62.5 µg/mL (≈ 128 µM)
- MIC [4]: 31.2 µg/mL (≈ 64.1 µM)
- zone of inhibition at 100 µg/disc (Escherichia coli 8739 [12]): 8 mm
- MIC [10]: 62.5 µg/mL (≈ 128 µM)
- MIC (Bacillus subtilis 6633 [5]): 15.6 µg/mL (≈ 32.1 µM)
- zone of inhibition at 100 µg/disc (Bacillus subtilis 6633 [6]): 15 mm
- melting point: 217 to 218 °C

SMILES: COc1ccc(-c2cc(-c3ccco3)nc3sc4c(N)c5c(nc4c23)CCCC5)cc1 [Compound 5a, 2-(Furan-2-yl)-4-(4-methoxyphenyl)-6,7,8,9-tetrahydropyrido[3′,2′:4,5]thieno[3,2-b]quinolin-10-amine]
- zone of inhibition at 100 µg/disc [7]: 12 mm
- zone of inhibition at 100 µg/disc (Bacillus cereus 33018 [1]): 13 mm
- MIC [8]: 31.2 µg/mL (≈ 73.1 µM)
- MIC (Bacillus cereus 33018 [3]): 31.2 µg/mL (≈ 73.1 µM)
- MIC (Escherichia coli 8739 [9]): 31.2 µg/mL (≈ 73.1 µM)
- zone of inhibition at 100 µg/disc (Escherichia coli 8739 [12]): 12 mm
- MIC (Bacillus subtilis 6633 [5]): 31.2 µg/mL (≈ 73.1 µM)
- zone of inhibition at 100 µg/disc (Bacillus subtilis 6633 [6]): 10 mm
- melting point: 231 °C

SMILES: NC(=O)c1sc2nc(-c3ccco3)cc(-c3cccs3)c2c1N=C1CCCCC1 [Compound 4b, 3-(Cyclohexylideneamino)-6-(furan-2-yl)-4-(thiophen-2-yl)thieno[2,3-b]pyridine-2-carboxamide]
- zone of inhibition at 100 µg/disc [2]: 12 mm
- zone of inhibition at 100 µg/disc [11]: 15 mm
- MIC (Escherichia coli 8739 [9]): 31.2 µg/mL (≈ 74.1 µM)
- MIC [4]: 31.2 µg/mL (≈ 74.1 µM)
- zone of inhibition at 100 µg/disc (Escherichia coli 8739 [12]): 12 mm
- MIC [10]: 15.6 µg/mL (≈ 37.1 µM)
- MIC (Bacillus subtilis 6633 [5]): 31.2 µg/mL (≈ 74.1 µM)
- zone of inhibition at 100 µg/disc (Bacillus subtilis 6633 [6]): 10 mm
- melting point: 320 to 322 °C
